Where a name gives a salt, the structure may show the parent alone.
How the values were obtained:
Assay type in all cases: in vitro ADME
[1] = Stability of conjugates in Simulated Gastric Fluid (SGF); settings: SGF pH 1.6 with pepsin, 37° C., 1 μM compound
Method: Assay 1. Stability of conjugates in Simulated Gastric Fluid (SGF). This assay was used to assess the stability of a conjugate in a stomach.
Medium was prepared by dissolving 2 g of sodium chloride in 0.6 L in ultrapure water (MilliQ®, Millipore Sigma, Darmstadt, Germany). The pH was adjusted to 1.6 with 1N hydrochloric acid, and the volume was then adjusted to 1 L with purified water.
60 mg FaSSIF powder (Biorelevant™, London, UK) were dissolved in 500 mL buffer (above). Pepsin was added (0.1 mg/mL) (Millipore Sigma, Darmstadt, Germany), and the solution was stirred. The resulting SGF media were used fresh for each experiment.
(§1) Test compounds were dissolved in DMSO stock to 1 mM. An aliquot of the DMSO stock solution was removed and diluted in the SGF Media in 15 mL falcon tubes to generate a total compound concentration of 1 μM. A 1 mL aliquot was immediately removed and diluted once with 1 volume of acetonitrile for TO timepoint. The mixture was sealed and mixed at 37° C. in an incubator. Aliquots (1 mL) were removed at regular intervals and immediately quenched by the addition of 1 volume of acetonitrile. The resulting samples were analyzed by LC/MS to determine degradation rates in SGF.

[2] = In vitro Colonic Material Stability Assay; settings: colonic material slurry in YCFAC media, anaerobic, 1 or 10 μM
Method: Assay 3. In vitro Colonic Material Stability Assay. This assay was used to assess the stability of a conjugate in a large intestine. All experiments were performed in an anaerobic chamber containing 90% nitrogen, 5% hydrogen and 5% carbon dioxide. Colonic material was resuspended as a slurry (15% w/v final concentration) in pre-reduced, anaerobically sterilized dilution blanks (Anaerobe Systems AS-908). The colonic material was then inoculated into 96 well plates containing YCFAC media (Anaerobe Systems AS-680) or other suitable media (6.7 μL slurry into 1 mL total media). Compounds or groups of compounds were added to each individual well to reach a final analyte concentration of 1 or 10 μM, and the material was mixed by pipetting. Sample was removed after set timepoints (0, 120, 240, 480, 1440, 2880 minutes after initiation of the assay), quenched with acetonitrile containing internal standard, and analyzed by LC/MS.

[3] = Stability of conjugates in Simulated Intestinal Fluid (SIF); settings: SIF pH 6.7 with pancreatin, 37° C., 1 μM compound
Method: Assay 2. Stability of conjugates in Simulated Intestinal Fluid (SIF). This assay was used to assess the stability of a conjugate in a small intestine.
Phosphate buffer was prepared by dissolving 0.42 g of sodium hydroxide pellets and 3.95 g of monobasic sodium phosphate monohydrate and 6.19 g of sodium chloride in ultrapure water (MilliQ®, Millipore Sigma, Darmstadt, Germany). The pH was adjusted to 6.7 using aq. HCl and aq. NaOH, as necessary, and the solution was diluted with ultrapure water to produce 1 L of the pH 6.7 buffer.
112 mg FaSSIF powder (Biorelevant™, London, UK) was dissolved in 50 mL of the pH 6.7 buffer. 2 to 3 mL of the resulting solution were then added to 500 mg pancreatin (Millipore Sigma, Darmstadt, Germany). The resulting mixture was agitated by finger tapping the vessel containing the mixture until milky suspension formed. At this time, the remainder of the 50 mL FaSSiF/pH 6.7 buffer solution was added. The resulting suspension was flipped upside down 10 times to produce SIF, which was used fresh.
as §1, with “SIF media” for “SGF Media”, “produce” for “generate”, “mixture with a tested” for “total”, “agitated” for “mixed”, “rates” for “rates in SGF.”

Row | Compound | Assay 1 (SGF) (% Remaining @ 1 hour) [1] | Assay 3 (% Remaining at 24 h) [2] | Assay 2 (SIF) (% @ Remaining 4 hours) [3]
1 | CCCC(=O)O[C@@H]1[C@@H](OC(=O)CCC)[C@@H](OC(=O)/C=C/C(=O)OC)OC[C@H]1OC(=O)CCC [Compound 8, Methyl ((2R,3R,4S,5R)-3,4,5-tris(butyryloxy)tetrahydro-2H-pyran-2-yl) fumarate] | C (C: >75% of the tested compound remaining) | C (C: >75% of the tested compound remaining) | A (A: <25% of the tested compound remaining)
2 | CCC(=O)O[C@H]1[C@@H](OC(=O)/C=C/C(=O)OC)OC[C@@H](OC(=O)CC)[C@H]1OC(=O)CC [Compound 9, Methyl ((2R,3R,4R,5R)-3,4,5-tris(propionyloxy)tetrahydro-2H-pyran-2-yl) fumarate] | C (C: >75% of the tested compound remaining) | C (C: >75% of the tested compound remaining) | A (A: <25% of the tested compound remaining)
3 | CCCC(=O)OC[C@H]1O[C@@H](OC(=O)/C=C/C(=O)OC)[C@H](OC(=O)CCC)[C@@H](OC(=O)CCC)[C@@H]1OC(=O)CCC [Compound 10, Methyl ((2S,3R,4S,5R,6R)-3,4,5-tris(butyryloxy)-6-((butyryloxy)methyl)tetrahydro-2H-pyran-2-yl) fumarate] | B (B: 25-75% of the tested compound remaining) | B (B: 25-75% of the tested compound remaining) | B (B: 25-75% of the tested compound remaining)
4 | CCCC(=O)OC[C@H]1O[C@H](OC(=O)/C=C/C(=O)OC)[C@H](OC(=O)CCC)[C@@H](OC(=O)CCC)[C@@H]1OC(=O)CCC [Compound 11, Methyl ((2R,3R,4S,5R,6R)-3,4,5-tris(butyryloxy)-6-((butyryloxy)methyl)tetrahydro-2H-pyran-2-yl) fumarate] | B (B: 25-75% of the tested compound remaining) | B (B: 25-75% of the tested compound remaining) | B (B: 25-75% of the tested compound remaining)
5 | CCCC(=O)O[C@@H]1[C@@H](OC(=O)CCC)[C@@H](OC(=O)/C=C/C(=O)OC)OC[C@@H]1OC(=O)CCC [Compound 12, Methyl ((2R,3R,4S,5S)-3,4,5-tris(butyryloxy)tetrahydro-2H-pyran-2-yl) fumarate] | C (C: >75% of the tested compound remaining) | C (C: >75% of the tested compound remaining) | A (A: <25% of the tested compound remaining)
6 | CCCC(=O)O[C@H]1[C@H](OC(=O)CCC)[C@H](OC(=O)/C=C/C(=O)OC)O[C@@H](C)[C@H]1OC(=O)CCC [Compound 13, Methyl ((2S,3S,4R,5R,6S)-3,4,5-tris(butyryloxy)-6-methyltetrahydro-2H-pyran-2-yl) fumarate] | B (B: 25-75% of the tested compound remaining) | C (C: >75% of the tested compound remaining) | A (A: <25% of the tested compound remaining)
7 | CCCC(=O)O[C@@H]1[C@@H](OC(=O)CCC)[C@H](C)O[C@H](OC(=O)/C=C/C(=O)OC)[C@@H]1OC(=O)CCC [Compound 14, Methyl ((2R,3R,4R,5S,6S)-3,4,5-tris(butyryloxy)-6-methyltetrahydro-2H-pyran-2-yl) fumarate] | C (C: >75% of the tested compound remaining) | C (C: >75% of the tested compound remaining) | A (A: <25% of the tested compound remaining)
8 | CCCC(=O)O[C@@H]1O[C@H](COC(=O)/C=C/C(=O)OC)[C@@H](OC(=O)CCC)[C@H](OC(=O)CCC)[C@H]1OC(=O)CCC [Compound 23, Methyl (((2R,3R,4S,5R,6S)-3,4,5,6-tetrakis(butyryloxy)tetrahydro-2H-pyran-2-yl)methyl) fumarate] | B (B: 25-75% of the tested compound remaining) | A (A: <25% of the tested compound remaining) | A (A: <25% of the tested compound remaining)
9 | CCCC(=O)O[C@@H]1[C@@H](OC(=O)CCC)[C@H](OC(=O)/C=C/C(=O)OC)OC[C@@H]1OC(=O)CCC [Compound 36, 1-methyl (2S,3R,4S,5S)-3,4,5-tris(butanoyloxy)oxan-2-yl (2E)-but-2-enedioate] | C (C: >75% of the tested compound remaining) | C (C: >75% of the tested compound remaining) | A (A: <25% of the tested compound remaining)
10 | CCCC(=O)O[C@@H]1[C@@H](OC(=O)CCC)[C@H](OC(=O)/C=C/C(=O)OC)O[C@H](CO)[C@H]1OC(=O)CCC [Compound 38, 1-methyl (2S,3R,4S,5R,6R)-3,4,5-tris(butanoyloxy)-6-(hydroxymethyl)oxan-2-yl (2E)-but-2-enedioate] | C (C: >75% of the tested compound remaining) | A (A: <25% of the tested compound remaining) | A (A: <25% of the tested compound remaining)
11 | CCCC(=O)O[C@@H]1[C@@H](OC(=O)CCC)[C@@H](OC(=O)/C=C/C(=O)OC)O[C@H](CO)[C@H]1OC(=O)CCC [Compound 39, 1-methyl (2R,3R,4S,5R,6R)-3,4,5-tris(butanoyloxy)-6-(hydroxymethyl)oxan-2-yl (2E)-but-2-enedioate] | C (C: >75% of the tested compound remaining) | A (A: <25% of the tested compound remaining) | A (A: <25% of the tested compound remaining)
12 | CCCC(=O)O[C@H]1O[C@H](COC(=O)/C=C/C(=O)OC)[C@@H](OC(=O)CCC)[C@H](OC(=O)CCC)[C@H]1OC(=O)CCC [Compound 40, 1-methyl 4-[(2R,3R,4S,5R,6R)-3,4,5,6-tetrakis(butanoyloxy)oxan-2-yl]methyl (2E)-but-2-enedioate] | B (B: 25-75% of the tested compound remaining) | A (A: <25% of the tested compound remaining) | A (A: <25% of the tested compound remaining)
